Columns and labels:
[1] = Apparent permeability across basal to apical side in human Caco-2 cells at 10 uM incubated for 90 mins by LC-MS/MS analysis
Galectin-1 [2] = target: T1, Galectin-1 (Homo sapiens, UniProt P09382); test: Binding affinity to human galectin-1 assessed as dissociation constant by fluorescein probe based fluorescence polarization assay
physchem = settings: octanol/potassium phosphate buffer, pH 7.4
[3] = Efflux ratio of apparent permeability across apical to basal side over basal to apical side in human Caco-2 cells at 10 uM incubated for 90 mins by LC-MS/MS analysis
[4] = Stability in human hepatocytes assessed as hepatic intrinsic clearance at 2 uM measured per million cells for 15 to 120 mins by LC-MS/MS analysis; type: ADME, cell-based, Hepatocyte; settings: time 15-120 min, read-out: CLH
Galectin-1 [5] = target: T2, Galectin-1 (Mus musculus, UniProt P16045); test: Binding affinity to mouse galectin-1 assessed as dissociation constant by fluorescein probe based fluorescence polarization assay
[6] = Stability in mouse hepatocytes assessed as hepatic intrinsic clearance at 2 uM measured per million cells for 15 to 120 mins by LC-MS/MS analysis; type: ADME, cell-based, Hepatocyte; settings: time 15-120 min, read-out: CLH
[7] = Apparent permeability across apical to basal side in human Caco-2 cells at 10 uM incubated for 90 mins by LC-MS/MS analysis
[8] = Unbound fraction in human plasma at 1 uM incubated for 5 hrs by equilibrium dialysis method; type: ADME, cell-free
Galectin-1 [9] = target: T1, Galectin-1; test: Binding affinity to human galectin-1 assessed as dissociation constant by fluorescence polarization assay
Galectin-1 [10] = target: T2, Galectin-1; test: Binding affinity to mouse galectin-1 assessed as dissociation constant by competitive fluorescence polarization assay

T1 sequence (P09382 whole entry): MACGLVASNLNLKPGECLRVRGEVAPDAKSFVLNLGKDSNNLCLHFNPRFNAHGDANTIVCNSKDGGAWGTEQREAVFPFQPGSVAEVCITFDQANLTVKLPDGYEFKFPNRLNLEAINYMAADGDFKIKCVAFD
T2 sequence (P16045 whole entry): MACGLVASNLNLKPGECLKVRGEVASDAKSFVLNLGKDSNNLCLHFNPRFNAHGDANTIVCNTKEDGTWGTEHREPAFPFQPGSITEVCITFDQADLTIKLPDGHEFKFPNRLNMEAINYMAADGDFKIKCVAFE

Compound	Papp B→A at 1.5 h, 10 µM [1]	Kd (Galectin-1 [2])	logD at 1 h (physchem)	efflux ratio at 1.5 h, 10 µM [3]	hepatocyte CLint at 2 µM [4]	Kd (Galectin-1 [5])	hepatocyte CLint at 2 µM [6]	Papp A→B at 1.5 h, 10 µM [7]	fraction unbound at 5 h, 1 µM [8]	Kd (Galectin-1 [9])	Kd (Galectin-1 [10])
CO[C@@H]1[C@@H](n2cc(-c3csc(N)n3)nn2)[C@@H](O)[C@@H](CO)O[C@@H]1Sc1cc(Cl)c(F)c(Cl)c1	39 ×10⁻⁶ cm/s	0.098 µM	3	11	4.6 µL/min/1e6 cells	0.091 µM	1.6 µL/min/1e6 cells	3.5 ×10⁻⁶ cm/s	–	–	–
OC[C@H]1O[C@H](Sc2ccc(Cl)c(Cl)c2)[C@H](O)[C@@H](n2cc(-c3csc(O)n3)nn2)[C@H]1O	35 ×10⁻⁶ cm/s	0.337 µM	–	> 23	–	–	–	< 1.5 ×10⁻⁶ cm/s	–	–	–
CO[C@@H]1[C@@H](n2cc(-c3csc(N)n3)nn2)[C@@H](O)[C@@H](CO)O[C@@H]1Sc1ccc(Cl)c(Cl)c1	38 ×10⁻⁶ cm/s	0.112 µM	2.9	10	< 1.5 µL/min/1e6 cells	0.099 µM	< 1.5 µL/min/1e6 cells	3.8 ×10⁻⁶ cm/s	0.032	–	–
CO[C@@H]1[C@@H](n2cc(-c3csc(O)n3)nn2)[C@@H](O)[C@@H](CO)O[C@@H]1Sc1cc(Cl)c(F)c(Cl)c1	57 ×10⁻⁶ cm/s	0.034 µM	3.3	63	2.5 µL/min/1e6 cells	0.043 µM	< 1.5 µL/min/1e6 cells	0.9 ×10⁻⁶ cm/s	–	–	–
CO[C@@H]1[C@@H](n2cc(-c3nccs3)nn2)[C@@H](O)[C@@H](CO)O[C@@H]1Sc1cc(Cl)c(F)c(Cl)c1	28 ×10⁻⁶ cm/s	0.145 µM	3.7	1.4	4.4 µL/min/1e6 cells	0.16 µM	< 1.5 µL/min/1e6 cells	20 ×10⁻⁶ cm/s	–	–	–
O=C(N[C@H]1[C@@H](O)[C@@H](CO)O[C@@H](S[C@@H]2O[C@H](CO)[C@H](O)[C@H](n3cc(-c4csc(O)n4)nn3)[C@H]2O)[C@@H]1O)c1ccc2c(c1)C(=O)OC21c2ccc(O)cc2Oc2cc(O)ccc21	–	–	–	–	–	–	–	–	–	0.02 µM	0.029 µM
OC[C@H]1O[C@H](Sc2cc(Cl)c(F)c(Cl)c2)[C@H](O)[C@@H](n2cc(-c3cscn3)nn2)[C@H]1O	–	–	–	3.4	–	–	–	8.8 ×10⁻⁶ cm/s	–	–	–
OC[C@H]1O[C@H](Sc2cc(Cl)c(F)c(Cl)c2)[C@H](O)[C@@H](n2cc(-c3nccs3)nn2)[C@H]1O	–	–	–	2.8	–	–	–	–	–	–	–

— ChEMBL document CHEMBL5500389, “Discovery of the Selective and Orally Available Galectin-1 Inhibitor GB1908 as a Potential Treatment for Lung Cancer” (J Med Chem, 2024)
